# According to patent publication US8664217B2, “Benzodiazepine compound and pharmaceutical composition” (Otsuka Pharmaceutical Co., Ltd., priority 2008, dated 2014):
# Structures can show the parent of a compound that is named as a salt.
# Target: T1, human GIRK1/4 channels (Homo sapiens, UniProt P48544+P48549)
# T1 construct: Full-length human GIRK1 cDNA was cloned from HuH cell- and HeLa cell-derived cDNA libraries; Full-length GIRK4 cDNA was amplified from a human heart cDNA library; expressed in transfected cells; host or cells: FLP-IN-CHO cells (Invitrogen)
# T1 sequence (P48549 1-501): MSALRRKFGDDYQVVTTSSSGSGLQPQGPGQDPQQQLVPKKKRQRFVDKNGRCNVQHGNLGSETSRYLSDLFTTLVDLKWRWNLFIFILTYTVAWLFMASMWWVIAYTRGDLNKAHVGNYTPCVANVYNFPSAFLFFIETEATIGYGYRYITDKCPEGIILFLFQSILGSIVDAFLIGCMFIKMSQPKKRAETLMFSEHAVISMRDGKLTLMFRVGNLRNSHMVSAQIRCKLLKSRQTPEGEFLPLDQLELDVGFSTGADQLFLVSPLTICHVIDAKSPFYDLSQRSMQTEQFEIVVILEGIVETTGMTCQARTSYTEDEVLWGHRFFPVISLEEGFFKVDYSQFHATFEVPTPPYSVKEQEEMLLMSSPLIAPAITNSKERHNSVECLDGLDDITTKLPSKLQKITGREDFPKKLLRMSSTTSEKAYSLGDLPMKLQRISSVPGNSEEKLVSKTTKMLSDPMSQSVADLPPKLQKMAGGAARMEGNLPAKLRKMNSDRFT
# T1 sequence (P48544 1-419): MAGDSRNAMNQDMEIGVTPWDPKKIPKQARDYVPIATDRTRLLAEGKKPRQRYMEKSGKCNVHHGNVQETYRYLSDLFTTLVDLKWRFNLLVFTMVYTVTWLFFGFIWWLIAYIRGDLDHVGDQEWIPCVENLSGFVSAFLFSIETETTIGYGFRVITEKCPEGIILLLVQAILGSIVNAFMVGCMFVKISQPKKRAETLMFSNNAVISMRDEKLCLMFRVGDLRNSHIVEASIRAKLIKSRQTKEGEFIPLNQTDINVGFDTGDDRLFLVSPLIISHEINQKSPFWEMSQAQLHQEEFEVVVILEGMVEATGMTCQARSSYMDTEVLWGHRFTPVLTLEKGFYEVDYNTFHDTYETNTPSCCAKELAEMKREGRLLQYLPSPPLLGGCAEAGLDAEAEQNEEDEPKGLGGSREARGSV
# Test: Measurement of human GIRK1/4 channel current by whole-cell patch clamp method (human GIRK1/4-expressing CHO cell line)
# Type: cell-based
# Conditions: not given
# Experimental: (2) Production of CHO Cell Line Expressing Human GIRK1/4
# CHO cell lines stably expressing human GIRK1/4 channels were prepared in the following manner.
# Full-length human GIRK1 cDNA was cloned from HuH cell- and HeLa cell-derived cDNA libraries. Full-length GIRK4 cDNA was amplified from a human heart cDNA library (produced by Clontech Laboratories, Inc.) by PCR using synthetic primers shown in Table 1, and cloned into the Eco-RI restriction enzyme site of pCR-Blunt (produced by Invitrogen Corporation) or into the HincII site of pUC118 (produced by Takara Bio, Inc.).
# The obtained human GIRK1 and GIRK4 cDNA sequences correspond to known sequences (NCBI database: GIRK1 (NM_002239) and GIRK4 (NM_000890) respectively). The obtained GIRK1 and GIRK4 cDNA sequences were cloned into the Eco-RI restriction enzyme site of pCR-Blunt (available from Invitrogen Corporation) or into the HincII site of pUC118 (available from Takara Bio, Inc.). A GIRK4 expression vector was constructed by insertion into the BamHI-XhoI site of pcDNA5/FRT. A GIRK1 expression vector was constructed by insertion into the KpnI-XhoI site of pcDNA3.1(+) or pCAG_neo. FLP-IN-CHO cells (produced by Invitrogen Corporation) were transfected with human GIRK1 and GIRK4 expression vectors by using Lipofectamine 2000 (produced by Invitrogen Corporation) according to the protocol enclosed with the reagent or using an electronic induction method (“Nucleofector Kit-T”, produced by Amaxa). First, the cells transfected with the GIRK4 expression vector were cultured in a 10% serum-containing F12 medium (produced by Sigma) supplemented with 600 μg/ml of hygromycin in an incubator with 5% carbon dioxide at 37° C. Then the cells expressing GIRK4 were transfected with the GIRK1 expression vector and were cultured in 10% serum-containing F12 medium supplemented with 350 μg/ml of G418 and 600 μg/ml of hygromycin in an incubator with 5% carbon dioxide at 37° C. to select GIRK1/4 expressing cell lines. Cell populations whose growth was observed after about 2 weeks were isolated using cloning rings, and the obtained single colonies were proliferated. RNA was extracted from single colonies, and single-stranded cDNA was synthesized by a cDNA synthesis kit (produced by Invitrogen Corporation), and the amount of expression was quantified at the mRNA level by real-time PCR (Applied Biosystems, Ltd.). Finally, the expressed current was analyzed by patch clamp method described below. The cell lines expressing a current of 500 pA or more per cell were selected as channel-expressing cell lines for activity measurement by patch clamping method.
# (4) Measurement of Ion Channel Current by Patch Clamp Method (Human GIRK1/4-Expressing CHO-K1 Cell Line)
# An experiment was carried out using a patch clamp setup at room temperature (20 to 26° C.). A perfusion chamber having a diameter of 20 mm (flow rate: about 5 ml/min) was mounted on the stage of a phase-contrast inverted microscope (produced by Nikon Corporation) placed on a vibration isolation table. A poly-L-lysine (produced by Sigma)-coated coverslip (diameter: 15 mm, produced by Matsunami Glass Ind., Ltd.) on which human GIRK1/4-expressing cells were cultured was placed in the perfusion chamber.
# Hyperpolarizing stimulation pulses were applied and ionic current was recorded using a patch clamp amplifier (EPC-7 or EPC-7 PLUS, manufactured by HEKA) and a personal computer (manufactured by IBM Corp.) in which software for data acquisition and analysis of ion channel current (PULSE 8.77, manufactured by HEKA) was installed. The current was measured in the whole-cell configuration of the patch-clamp technique. The tip (resistance: 2 to 4 MΩ) of a borosilicate glass pipette (produced by Sutter Instrument Co.) was gently placed on the cell membrane by using a three-dimensional mechanical micromanipulator (produced by Shoshin EM Corporation). […] Subsequently, stronger suction was applied to break the cell membrane. […]
row,Compound,IC50
1,CCN1C(=O)C(C)(C)C(=O)N(C)c2cc(OCCCN(CCn3ccc4ccccc4c3=O)Cc3ccsc3)ccc21 [Example 125],91 nM

# Same assay, conditions: whole-cell patch clamp, human GIRK1/4-expressing CHO cells; step end current at −120 mV; test compound 0.1, 1, 10 μM; read-out: GIRK¼ IC50
row,Compound,IC50
1,"CN1C(=O)C(C)(C)C(=O)N(C)c2cc(OCCCN(CCc3cccnc3)Cc3ccnc4ccccc34)ccc21 [Example 51, 1,3,3,5-tetramethyl-7-{3-[(2-pyridin-3-ylethyl)-(quinolin-4-ylmethyl)amino]propoxy}-1,5-dihydrobenzo[b][1,4]diazepine-2,4-dione trihydrochloride]",1500 nM
2,CCN1C(=O)C(C)(C)C(=O)N(C)c2cc(OCCCN(CCc3cccnc3)Cc3ccccc3)ccc21 [Example 200],590 nM
3,"CCCN1C(=O)C(C)(C)C(=O)N(C)c2cc(OCCCN(CCc3cccnc3)Cc3ccncc3)ccc21 [Example 10, 3,3,5-trimethyl-1-propyl-7-{3-[(2-pyridin-3-ylethyl)pyridin-4-ylmethylamino]propoxy}-1,5-dihydrobenzo[b][1,4]diazepine-2,4-dione trihydrochloride]",3600 nM
4,"CCN1C(=O)C(C)(C)C(=O)N(C)c2cc(OCCCN(CCn3ccc4ccoc4c3=O)Cc3ccncc3)ccc21 [Example 31, 1-ethyl-3,3,5-trimethyl-7-(3-{[2-(7-oxo-7H-furo[2,3-c]pyridin-6-yl)ethyl]pyridin-4-ylmethylamino}propoxy)-1,5-dihydrobenzo[b][1,4]diazepine-2,4-dione dihydrochloride]",2900 nM
5,"CCN1C(=O)C(C)(C)C(=O)N(C)c2cc(OCCCN(CCc3cccnc3)Cc3ccncc3C)ccc21 [Example 54, 1-ethyl-3,3,5-trimethyl-7-{3-[(3-methylpyridin-4-ylmethyl)-(2-pyridin-3-ylethyl)amino]propoxy}-1,5-dihydrobenzo[b][1,4]diazepine-2,4-dione trihydrochloride]",970 nM
6,"CN(CCN(CCCOc1ccc2c(c1)N(C)C(=O)C(C)(C)C(=O)N2C)Cc1ccncc1)C(=O)c1ccccc1 [Example 45, N-methyl-N-(2-{pyridin-4-ylmethyl-[3-(1,3,3,5-tetramethyl-2,4-dioxo-2,3,4,5-tetrahydro-1H-benzo[b][1,4]diazepin-7-yloxy)propyl]amino}ethyl)benzamide dihydrochloride]",2150 nM
7,"CCN1C(=O)C(C)(C)C(=O)N(C)c2cc(OCCCN(CCn3ccc4ccccc4c3=O)S(=O)(=O)c3ccccc3)ccc21 [Example 634, N-[3-(1-ethyl-3,3,5-trimethyl-2,4-dioxo-2,3,4,5-tetrahydro-1H-benzo[b][1,4]diazepin-7-yloxy)propyl]-N-[2-(1-oxo-1H-isoquinolin-2-yl)ethyl]benzenesulfonamide]",490 nM
8,"CCN1C(=O)C(C)(C)C(=O)N(C)c2cc(OCCCN(CCn3ccc4occc4c3=O)Cc3cccnc3C)ccc21 [Example 575, 1-ethyl-3,3,5-trimethyl-7-(3-{(2-methylpyridin-3-ylmethyl)-[2-(4-oxo-4H-furo[3,2-c]pyridin-5-yl)ethyl]-amino}propoxy)-1,5-dihydrobenzo[b][1,4]diazepine-2,4-dione]",500 nM
9,CCN1C(=O)C(C)(C)C(=O)N(C)c2cc(OCCCN(CCn3ccc4ccccc4c3=O)Cc3ccc(C#N)cc3)ccc21 [Example 85],150 nM
10,CCN1C(=O)C(C)(C)C(=O)N(C)c2cc(OCCCN(CCn3ccc4ccoc4c3=O)Cc3ccccc3C)ccc21 [Example 398],490 nM

# The remaining lines, values ahead:
row,IC50,Compound
1,3200 nM,"CCN1C(=O)C(C)(C)C(=O)N(C)c2cc(OCCCN(CCn3ccc4oc(C)cc4c3=O)Cc3ccncc3)ccc21 [Example 464, 1-ethyl-3,3,5-trimethyl-7-(3-{[2-(2-methyl-4-oxo-4H-furo[3,2-c]pyridin-5-yl)ethyl]pyridin-4-ylmethylamino}propoxy)-1,5-dihydrobenzo[b][1,4]diazepine-2,4-dione dihydrochloride]"
2,1500 nM,"CCN1C(=O)C(C)(C)C(=O)N(C)c2cc(OCCCN(CCn3ccc4oc(C)cc4c3=O)Cc3cnccc3C)ccc21 [Example 573, 1-ethyl-3,3,5-trimethyl-7-{3-[[2-(2-methyl-4-oxo-4H-furo[3,2-c]pyridin-5-yl)ethyl]-(4-methylpyridin-3-ylmethyl)amino]propoxy}-1,5-dihydrobenzo[b][1,4]diazepine-2,4-dione]"
3,790 nM,"CCN1C(=O)C(C)(C)C(=O)N(C)c2cc(OCCCN(CCn3ccc4sccc4c3=O)Cc3cccnc3C)ccc21 [Example 595, 1-ethyl-3,3,5-trimethyl-7-(3-{(2-methylpyridin-3-ylmethyl)-[2-(4-oxo-4H-thieno[3,2-c]pyridin-5-yl)ethyl]-amino}propoxy)-1,5-dihydrobenzo[b][1,4]diazepine-2,4-dione]"
4,370 nM,"CCCc1ncccc1CN(CCCOc1ccc2c(c1)N(C)C(=O)C(C)(C)C(=O)N2CC)CCn1ccc2oc(C)cc2c1=O [Example 611, 1-ethyl-3,3,5-trimethyl-7-{3-[[2-(2-methyl-4-oxo-4H-furo[3,2-c]pyridin-5-yl)ethyl]-(2-propylpyridin-3-ylmethyl)amino]propoxy}-1,5-dihydrobenzo[b][1,4]diazepine-2,4-dione dihydrochloride]"
5,270 nM,CCN1C(=O)C(C)(C)C(=O)N(C)c2cc(OCCCN(CCn3ccc4ccccc4c3=O)Cc3ccco3)ccc21 [Example 132]
6,220 nM,CCN1C(=O)C(C)(C)C(=O)N(C)c2cc(OCCCN(CCc3cccnc3)Cc3ccccc3-c3cccnc3)ccc21 [Example 242]
7,50 nM,"CCN1C(=O)C(C)(C)C(=O)N(C)c2cc(OCCCN(CCn3ccc4sccc4c3=O)Cc3cccnc3)ccc21 [Example 568, 1-ethyl-3,3,5-trimethyl-7-(3-{[2-(4-oxo-4H-thieno[3,2-c]pyridin-5-yl)ethyl]pyridin-3-ylmethylamino}-propoxy)-1,5-dihydrobenzo[b][1,4]diazepine-2,4-dione]"
